Assay results taken from publication doi:10.1101/2021.02.09.430557v1 (biorxiv, 2021).

Molecular target: T1, AnHSD (Paenarthrobacter nicotinovorans, UniProt A0ABT9TQY6)
T1 sequence (A0ABT9TQY6 1-348): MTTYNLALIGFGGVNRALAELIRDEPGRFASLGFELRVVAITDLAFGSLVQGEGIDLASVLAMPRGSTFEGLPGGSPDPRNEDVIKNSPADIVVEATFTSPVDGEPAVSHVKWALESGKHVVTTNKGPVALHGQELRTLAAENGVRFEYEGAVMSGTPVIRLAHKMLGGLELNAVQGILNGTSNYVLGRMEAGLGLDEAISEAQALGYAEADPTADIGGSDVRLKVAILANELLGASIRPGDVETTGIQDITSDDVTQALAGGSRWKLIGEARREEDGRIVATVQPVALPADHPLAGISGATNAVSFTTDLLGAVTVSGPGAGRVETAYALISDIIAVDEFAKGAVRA
Experiment: residual L-homoserine oxidation activity, absorbance at […] nm
Type: biochemical
Settings: read-out: Relative activity (%) at 10 mM

activity at 10000 µM: 76.7 ± 1.53%
SMILES: N[C@@H](CC(=O)O)C(=O)O [L-aspartate]
